# Measurements reported in US10117943B2, “Synthetic antibody mimetic compounds (SYAMS) targeting cancer, especially prostate cancer” (YALE UNIVERSITY, priority 2013, dated 2018).
# Columns and labels:
# Type in all cases: cell-based
# PSMA coated beads [1] = experiment: Molecule induced phagocytosis of PSMA coated beads by IFN-γ primed U937 cells; conditions: for Observed % Phagocytosis (50 nM SyAM-P2): beads; for phagocytosis of PSMA coated beads (comparison in words): compared with the previous generation SyAM-P
# Protocol: (§1) Three days before the experiments, a plate of U937 cells (approximately 60% confluent) was passed into a new Petri dish (10 mL colored RPMI growth media total volume). IFN-γ (20 μL, 100 μg/mL in DPBS) was added, and the cells were maintained in an incubator (37° C., 24 h). The cells were pelleted after 24 hours and resuspended in 10 mL of IFN-γ (20 uL, 100 ug/mL in DPBS) and maintained in an incubator (37° C., 24 h)
# For phagocytosis: cells were transferred into a Falcon tube, and DiD (19 uL, final concentration=1.9 μM) was added. The cells were maintained in an incubator (37° C., 30 min), pelleted, aspirated, resuspended in RPMI growth media (10 mL), and split equally into two Petri dishes. To each dish were added additional colored RPMI growth media (5 mL) and IFN-γ (20 μL, 100 μg/mL in DPBS), and maintained in an incubator (37° C., 24 h).
# […] streptavidin fluoresbrite YG microspheres from Polysciences were incubated with 4× concentration of avi-tagged PSMA for 30 minutes at room temperature in DPBS (concentration of avi-tagged PSMA is dependent on biotin loading capacity of microspheres). Beads were washed with DPBS 2× and resuspended in color-free ADCP media at 1.6 million beads/mL.
# Phagocytosis: 25 uL of bead solution was added to 25 uL of ADCP media either with or without molecules at various concentrations in an eppendorf tube. To this 50 uL of 4 million/mL primed U937 cells were added, gently mixed and then centrifuged at […] for 2 minutes. The caps were opened and placed in an incubator (37° C., 1 hr) at which point the eppendorfs were closed and placed on ice. Samples were vortexed and run on an Accuri C6 flow cytometer for a total of 50 k counts.
# Data analysis: For each experiment 50,000 events were counted. Forward and side scatter plots were optimally gated to remove debris particles and cellular aggregates. On a plot of FL-2 vs FL-4 the following populations were counted: […]
# RM1.PGLS cells [2] = experiment: Phagocytosis of PSMA expressing RM1.PGLS cells by IFN-γ primed U937 cells; conditions: for phagocytosis of RM1.PGLS cells (in words): IFN-γ primed U937 effectors
# Protocol: Target cell passing: Three days before the experiments, a plate of target cells, RM1.PGLS cells were passed into a new flask.
# Effector cell priming: Three days before the experiments, a plate of U937 cells (approximately 60% confluent) was passed into a new Petri dish (10 mL colored ADCP media total volume). IFN-γ (20 μL, 100 μg/mL in DPBS) was added, and the cells were maintained in an incubator (37° C., 24 h). The cells were transferred into a Falcon tube, and DiD (19 uL, final concentration=1.9 μM) was added. The cells were maintained in an incubator (37° C., 30 min), pelleted, aspirated, resuspended in colored ADCP media (10 mL), and split equally into two Petri dishes. To each dish were added additional colored ADCP media (5 mL) and IFN-γ (20 μL, 100 μg/mL in DPBS), and the cells were maintained in an incubator (37° C., 24 h).
# Target cell preparation: To a plate of target cells (60-80% confluent RM1.PGLS cells 10 mL total media volume) was added DiO (20 μL, final concentration=2 μM). The cells were maintained in an incubator (37° C., 30 min), aspirated, and washed with colored ADCP media (3×10 mL). Colored ADCP media (10 mL) was added. The cells were maintained in an incubator (37° C., 2 h), detached and resuspended in color-free ADCP media at a concentration of 0.5 million cells per mL.
# Effector cell preparation: Both dishes of primed U937 cells were transferred into a Falcon tube, pelleted, aspirated, resuspended in color-free ADCP media (10 mL), counted, and diluted with color-free ADCP media to give a final concentration of 2 million cells per mL.
# Phagocytosis: All conditions were run in triplicate. For each experiment, into a sterile 2 mL Eppendorf tube were added color-free ADCP media (25 μL) containing either various concentrations of SyAM-Px or ARM-P8/Anti-DNP antibody, target cells (25 μL=12,500 cells), and effector cells (50 μL=100,000 cells), to give an effector-to-target ratio of 8:1. Tubes were gently agitated by hand. The cells were pelleted (2 min, 1100 rpm). The tubes were opened, maintained in an incubator (37° C., 1 h), resuspended by briefly agitating with a vortex, and analyzed by flow cytometry.
# RM1.PGLS cells [3] = experiment: Superoxide burst (lucigenin) by primed U937 cells against RM1.PGLS cells; conditions: IFN-γ primed U937 effectors
# Text: Since SyAM-P1 was able to induce effector-cell mediated responses against target protein coated beads, the inventors then evaluated if the molecule can elicit the effects against PSMA expressing cells. To that end, the inventors evaluated the SyAM-P1 induced immune responses by primed U937 effector cells against PSMA expressing RM1.PGLS cells. They tested the U937-mediated immune effects by evaluating both superoxide burst and phagocytosis of effector cells, analogous to the protein coated bead experiments. In this experiment, IFN-γ primed U937 cells were incubated with PSMA expressing RM1.PGLS cells, and treated with various concentrations of SyAM-P1. The resulting superoxide burst response was measured using the lucigenin assay (data not shown). Additionally, primed U937 cells (stained with DiD, an FL4 membrane dye) were incubated with target RM1.PGLS cells (stained with […], an FL1 membrane dye), in the presence of various concentrations of SyAM-P 1. The resulting phagocytosis—indicated by FL1 and FL4 double positive cells—was measured using two-color flow-cytometry. As a positive control, ARM-P8 combined with anti-DNP antibodies was utilized. […] The positive response seen with the Arm-P8 control, could potentially be attributed to the ability of antibodies to ligate both FcγRI and FcγRIIA on the immune effector cells, increasing immune signaling and phagocytic responses.
# PSMA coated beads [4] = experiment: ROS production (superoxide burst, lucigenin) by primed U937 cells against PSMA coated beads
# Protocol: as §1
# For ROS production cells were resuspended in RPMI growth media (10 mL), and split equally into two Petri dishes. To each dish were added additional colored RPMI growth media (5 mL) and IFN-γ (20 μL, 100 μg/mL in DPBS), and maintained in an incubator (37° C., 24 h)
# Primed U937 were suspended in color-free ADCP media at a concentration of 3×10^5 U937 cells and mixed with 10^5 PSMA coated beads and various concentrations of molecules in a 96 well plate in a volume of 90 uL. To each well was added 10 μl of 2.5 mM lucigenin (Tokyo Chemicals) solution to bring the total volume to 100 μl. The plate was centrifuged at 200 rcf for 2 minutes (PLATE SPINNER). The chemiluminescence was then measured at two minute intervals by plate reader (Biotek Synergy 2) for 60 to 90 minutes.
SMILES,"inhibition of SyAM-P3 induced phagocytosis of PSMA coated beads (PSMA coated beads [1]; 50 nM SyAM-P3, increasing inhibitor concentrations)","effect of inhibitor on SyAM-P1 induced immune effector responses (superoxide burst, phagocytosis of beads) (PSMA coated beads [1]; data not shown)","inhibition of SyAM-P3 induced phagocytosis of RM1.PGLS cells (RM1.PGLS cells [2]; 6.25 nM SyAM-P3, increasing inhibitor concentrations)","Observed % Phagocytosis (50 nM SyAM-P2) (PSMA coated beads [1]; labeling 2.9 pmol/bead, calculated 1972 PSMA/um^2) [%]","Observed % Phagocytosis (50 nM SyAM-P2) (PSMA coated beads [1]; labeling 5.7 pmol/bead, calculated 3876 PSMA/um^2) [%]","Observed % Phagocytosis (50 nM SyAM-P2) (PSMA coated beads [1]; labeling 8.2 pmol/bead, measured 5577 PSMA/um^2) [%]",phagocytosis of PSMA coated beads (comparison in words) (PSMA coated beads [1]),phagocytosis of RM1.PGLS cells (in words) (RM1.PGLS cells [2]),"Observed % Phagocytosis (50 nM SyAM-P2) (RM1.PGLS cells [2]; target RM1.PGLS cells, measured 918 PSMA/um^2, 50 nM) [%]",superoxide burst against RM1.PGLS cells (in words) (RM1.PGLS cells [3]),concentration of peak phagocytosis response (RM1.PGLS cells [2]; RM1.PGLS cells) [nM],"phagocytosis of RM1.PGLS cells compared with ArmP8 plus anti-DNP antibody (RM1.PGLS cells [2]; anti-DNP antibody 133 nM, background subtracted)","superoxide production without target PSMA+ beads (PSMA coated beads [4]; SyAM-P3 alone, various concentrations)",superoxide burst against PSMA coated beads (comparison in words) (PSMA coated beads [4]; compared with SyAM-P2)
"O=C(O)CCC(CP(=O)(O)O)C(=O)O (centres unmarked) [2-PMPA, reference compound]",inhibition of phagocytosis,abrogated,inhibition of phagocytosis,–,–,–,–,–,–,–,–,–,–,–
CC(=O)N[C@H](C(=O)N[C@@H](CC(N)=O)C(=O)N[C@@H](CO)C(=O)N[C@H]1CSSC[C@@H](C(=O)NCC(=O)N[C@@H](CC(=O)O)C(=O)N[C@@H](CC(=O)O)C(=O)N[C@@H](C)C(=O)N[C@@H](CCCCNC(=O)CCCCc2cn(-c3cc(C(=O)NCCCCCC(=O)NCCCCCC(=O)NCCCCCC(=O)NCCCCCC(=O)NCCCCCC(=O)NCCCCCC(=O)NCc4cn(CCCC[C@H](NC(=O)N[C@@H](CCC(=O)O)C(=O)O)C(=O)O)nn4)cc(C(=O)NCCCCCC(=O)NCCCCCC(=O)NCCCCCC(=O)NCCCCCC(=O)NCCCCCC(=O)NCCCCCC(=O)NCc4cn(CCCC[C@H](NC(=O)N[C@@H](CCC(=O)O)C(=O)O)C(=O)O)nn4)c3)nn2)C(=O)N[C@@H](CCCCNC(=O)CCCC[C@@H]2SC[C@@H]3NC(=O)N[C@@H]32)C(N)=O)NC(=O)CNC(=O)[C@H](CC(C)C)NC(=O)[C@H](CC(C)C)NC(=O)[C@H](CC(N)=O)NC(=O)[C@@H]2CCCN2C(=O)[C@H](CC(C)C)NC(=O)[C@H](CC(C)C)NC(=O)[C@H](CC(C)C)NC1=O)C(C)C [SyAM-P2],–,–,–,10.1,24.0,46.2,much higher level of phagocytosis,no response,0,no response,–,–,–,–
CC(=O)N[C@H](C(=O)N[C@@H](CC(N)=O)C(=O)N[C@@H](CO)C(=O)N[C@H]1CSSC[C@@H](C(=O)NCC(=O)N[C@@H](CC(=O)O)C(=O)N[C@@H](CC(=O)O)C(=O)N[C@@H](CCCCNC(=O)CCCC(=O)NCCOCCOCCOCC(=O)NCCCC[C@H](NC(=O)COCCOCCOCCNC(=O)CCCC(=O)NCCCC[C@H](NC(=O)[C@H](CC(=O)O)NC(=O)[C@H](CC(=O)O)NC(=O)CNC(=O)[C@@H]2CSSC[C@H](NC(=O)[C@H](CO)NC(=O)[C@H](CC(N)=O)NC(=O)[C@@H](NC(C)=O)C(C)C)C(=O)N[C@@H](CC(C)C)C(=O)N[C@@H](CC(C)C)C(=O)N[C@@H](CC(C)C)C(=O)N3CCC[C@H]3C(=O)N[C@@H](CC(N)=O)C(=O)N[C@@H](CC(C)C)C(=O)N[C@@H](CC(C)C)C(=O)NCC(=O)N2)C(=O)N[C@@H](CCCCNC(=O)CCCC[C@@H]2SC[C@@H]3NC(=O)N[C@@H]32)C(N)=O)C(=O)NCc2cn(-c3cc(C(=O)NCCCCCC(=O)NCCCCCC(=O)NCCCCCC(=O)NCCCCCC(=O)NCCCCCC(=O)NCCCCCC(=O)NCc4cn(CCCC[C@H](NC(=O)N[C@@H](CCC(=O)O)C(=O)O)C(=O)O)nn4)cc(C(=O)NCCCCCC(=O)NCCCCCC(=O)NCCCCCC(=O)NCCCCCC(=O)NCCCCCC(=O)NCCCCCC(=O)NCc4cn(CCCC[C@H](NC(=O)N[C@@H](CCC(=O)O)C(=O)O)C(=O)O)nn4)c3)nn2)C(=O)N[C@@H](CCCCNC(=O)CCCC[C@@H]2SC[C@@H]3NC(=O)N[C@@H]32)C(N)=O)NC(=O)CNC(=O)[C@H](CC(C)C)NC(=O)[C@H](CC(C)C)NC(=O)[C@H](CC(N)=O)NC(=O)[C@@H]2CCCN2C(=O)[C@H](CC(C)C)NC(=O)[C@H](CC(C)C)NC(=O)[C@H](CC(C)C)NC1=O)C(C)C [SyAM-P3],–,–,–,–,–,–,much greater immune response,"effectively induce U937-mediated phagocytosis, in a dose dependent manner",–,No response,10,phagocytosis at significantly less concentration than for ArmP8,little to no background superoxide detection,much greater immune response
